Data reported in PMC11351550, “Synthesis, Cytotoxicity and Antioxidant Activity Evaluation of Some Thiazolyl–Catechol Compounds” (Antioxidants, 2024).

Columns and labels:
Format in all cases: biochemical
[1] = DPPH radical-scavenging assay; conditions: 30 min in the dark, 517 nm; read-out: IC50 against DPPH•
Experimental: (§1) The stock solutions of the reference antioxidants (ascorbic acid, Trolox, EDTA-Na2) and compounds 3a–j were prepared by dissolving the solid powders in DMSO, obtaining 2 mM stock solutions. Following this, an additional set of solutions (0.2 mM) for each compound was obtained by dilution with DMSO. Absorption spectra of the tested compounds covering the range from 400 nm to 800 nm were recorded, indicating no absorption peaks near the wavelengths employed in the experiments. All measurements in the presented assays were made against blank samples. To quantify the activity of the compounds 3a–j, for the antiradical assays (DPPH and ABTS) and ferrous ion chelation, IC50 was calculated using Equation (1), while for the electron transfer assays (TAC, RP, FRAP and CUPRAC), the reference number of mole equivalent activity for each compound was calculated using Equation (2). (1) radical scavenging (%)=control absorbance−sample absorbance/control absorbance×100 (2) equivalents of control=sample absorbance/control absorbance
The DPPH˙ (2,2-diphenyl-1-picrylhydrazyl) radical-scavenging assay, initially reported by Brand-Williams et al., relies on transferring a hydrogen atom from the antioxidant substrate being analyzed to the stable violet radical of DPPH˙. This action converts DPPH˙ into a nonradical stable yellow compound. The reduction in absorbance of the DPPH˙ at λ = 517 nm corresponds to the quantity of neutralized reagent. To perform the DPPH assay, we took 50, 75, 100, 125, and 150 µL of each sample from their 0.2 mM stock solutions, then we adjusted the volumes with DMSO to ensure all samples reached a uniform final volume. These solutions were mixed with 1 mL of DPPH reagent and incubated in the dark for 30 min, as presented in literature reports.

[2] = Ferrous ion chelation assay (ferrozine)
Experimental: as §1
To evaluate the ability of compounds to chelate ferrous ions, an assay was performed using an adaptation of Dinis et al.’s initial report. The solutions of the tested compounds (2 mM) were mixed well with 500 µL of FeSO4 (0.125 mM), and 500 µL of ferrozine 0.315 mM. After 10 min, the absorbance of the samples was determined spectrophotometrically at λ = 562 nm. EDTA-Na2 was used as a positive control, due to its exceptional ion chelation properties.

[3] = ABTS radical cation decolorization assay; conditions: 10 min, pH 7.4, 734 nm; read-out: IC50 against ABTS•+
Experimental: as §1
The decolorization assay of the green ABTS^•+ (2,2′-azinobis-(3-ethylbenzothiazoline-6-sulfonic acid) to ABTS, based on the report of Re et al., was conducted following our group’s published report. The chemical stability of the ABTS^•+ reagent prior to use was checked at λ = 734 nm over one hour, ensuring a consistent absorption (approximately equal to 0.7). The reagent was prepared in potassium phosphate buffer (0.1 M, pH = 7.4) and activated overnight using MnO2 [17]. In all cuvettes, we added 100 μL of the tested compound solutions (0.2 mM) in increasing concentrations up to 200 µL and 2000 µL of the ABTS^•+ reagent. The resulting mixtures were thoroughly shaken for 10 min at room temperature, in the absence of light. The optical absorbance of the resulting mixtures was then measured by spectrophotometry at λ = 734 nm.

| IC50 [1] [µM] | IC50 [3] [µM] | SMILES | ferrous ion chelation percent ([2]; 0.25 µM) [%] | ferrous ion chelation percent ([2]; 0.5 µM) [%] | ferrous ion chelation percent ([2]; 1 µM) [%] | ferrous ion chelation percent ([2]; 1.5 µM) [%] | ferrous ion chelation percent ([2]; 2 µM) [%] |
| --- | --- | --- | --- | --- | --- | --- | --- |
| 53.5 |  | O=C1O[C@H]([C@@H](O)CO)C(O)=C1O [Ascorbic acid, reference compound] |  |  |  |  |  |
|  |  | O=C([O-])CN(CCN(CC(=O)[O-])CC(=O)O)CC(=O)O.[Na+].[Na+] [EDTA–Na2, EDTA-Na2, reference compound] | 47.21 | 55.24 | 73.41 | 86.52 | 96.20 |
| 38.1 | 15.9 | Cc1c(C)c2c(c(C)c1O)CCC(C)(C(=O)O)O2 (centres unmarked) [Trolox, reference compound] |  |  |  |  |  |
